Assay results taken from patent US20220324803A1 (Teon Therapeutics, Inc., priority 2019, published 2022).

How the values were obtained:
[1] = molecular target: T1, human Prostanoid EP4 Receptor (EP4) (Homo sapiens, UniProt P35408); test: Prostanoid EP4 binding assay (3H-prostaglandin E2 displacement, cell membranes); conditions: HEK293 cell membranes with human EP4, 3H-prostaglandin E2, 24° C.
T1 construct: expressed in transfected cells; host or cells: HEK293 (G418 selection); membranes prepared by differential centrifugation
T1 sequence (P35408 whole entry): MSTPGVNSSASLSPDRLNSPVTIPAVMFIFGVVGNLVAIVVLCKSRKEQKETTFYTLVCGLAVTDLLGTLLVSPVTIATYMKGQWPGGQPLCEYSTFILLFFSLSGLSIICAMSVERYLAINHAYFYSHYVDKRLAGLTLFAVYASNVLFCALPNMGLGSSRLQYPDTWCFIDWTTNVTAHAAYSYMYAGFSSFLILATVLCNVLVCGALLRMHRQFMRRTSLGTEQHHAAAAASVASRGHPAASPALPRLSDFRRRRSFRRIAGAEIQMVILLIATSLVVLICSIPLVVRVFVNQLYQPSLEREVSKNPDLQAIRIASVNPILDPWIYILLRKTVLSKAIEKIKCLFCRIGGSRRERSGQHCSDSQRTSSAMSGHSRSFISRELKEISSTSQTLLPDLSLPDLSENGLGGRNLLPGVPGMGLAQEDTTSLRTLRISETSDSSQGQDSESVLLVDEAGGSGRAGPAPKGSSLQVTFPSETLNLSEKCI
Procedure: HEK293 cells transfected with human Prostanoid EP4 Receptor (EP4) are maintained in DMEM supplemented with L-Glutamine, 10% FBS and 300 μg/ml G418. Cells are harvested and membranes prepared by differential centrifugation, following lysis of the cells in the presence of protease inhibitors, for use in the receptor binding assay. EP4 binding assay is performed in 50 mM HEPES pH7.4, 5 mM MgCl2, 1 mM CaCl2) and 0.2% BSA. Testing compounds are diluted with DMSO to make 8-point 4-fold serial dilution. Cell membrane homogenates are incubated at 24° C. with ^3H-prostaglandin E2 in the absence or presence of the testing compound in assay buffer. Nonspecific binding (Low control: LC) and total binding (High control: HC) are determined in the presence or absence of saturated cold ligand Prostaglandin E2 (PGE2). Specific binding is calculated by subtracting nonspecific binding from total binding. When binding assays are completed, the reaction mixture is filtered rapidly under vacuum through glass fiber filters (GF/C, Packard) presoaked with 0.5% BSA for at least 0.5 hour at room temperature and then washed for 4 times with cold wash buffer (50 mM HEPES pH7.4, 500 mM NaCl, 0.1% BSA) using a 96-sample Perkin Elmer Filtermate Harvester (Unifilter, Packard). The filters are dried for 1 hour at 50 degrees then counted for radioactivity in a scintillation counter using Perkin Elmer Microscint 20 cocktail. ^3H trapped on filter is counted using Perkin Elmer MicroBeta2 Reader. Inhibition is calculated using following equation: % Inhibition=(1−(Assay well−Average_LC)/(Average_HC−Average_LC))×100%. The results are expressed as a percent inhibition of the control radioligand specific binding. Data are analyzed and IC50 is calculated using GraphPad Prism 5 and the model “log(inhibitor) vs. response—Variable slope”. The binding affinity of the compounds is determined by using the Cheng and Prusoff equation Ki=IC50/(1+[radioligand]/Kd).

[2] = molecular target: T1, human Prostanoid EP4 Receptor (EP4); test: Prostanoid EP4 FLIPR assay (calcium flux, PGE2 addition); type: cell-based; conditions: HEK293 cells transfected with human EP4, Fluo-4 calcium dye
Procedure: (§1) HEK293 cells transfected with human Prostanoid EP4 Receptor (EP4) or CHO cells transfected with human Prostanoid EP2 Receptor (EP2) are maintained in DMEM supplemented with L-Glutamine, 10% FBS and 300 μg/ml G418. Cells are plated at 20,000 cells/well in black 384-well Poly-D-Lysine protein coating plate and incubated at 37° C., 5% CO2 for 24 h. Prior to the assay, calcium-sensitive dye Fluo-4 Direct™ (Molecular Devices) is reconstituted according to manufacturer instructions. The reconstituted dye was diluted in assay buffer (1× HBSS, 20 mM HEPES, and 2.5 mM Probenicid, pH 7.4). Growth media is removed and 20 μl of this diluted dye is added to each well at a final concentration of 2 μM. Plates are incubated for 50 min at 37° C. 5% C02 and 10 min at RT after dye addition. Testing compounds are diluted with DMSO to make 10-point 4-fold serial dilution. After the pre-treatment incubation, fluorescence intensity is measured on a FlexStation II fluorometric imaging plate reader (Molecular Devices). Relative fluorescence units (RFU) are measured before (20 readings) and after (40 readings) the PGE2 addition for a total 60 sec read time (Excitation=485 nm, Emission=525 nm). Data are analyzed and IC50 is calculated using GraphPad Prism 5 and the model “log(inhibitor) vs. response—Variable slope”.
(§2) Illustrative data for representative compounds are described in Table 2.

[3] = molecular target: T2, human Prostanoid EP2 Receptor (EP2) (Homo sapiens, UniProt P43116); test: Prostanoid EP2 FLIPR assay (calcium flux, PGE2 addition); type: cell-based; conditions: CHO cells transfected with human EP2, Fluo-4 calcium dye
T2 construct: expressed in transfected cells; host or cells: CHO (G418 selection)
T2 sequence (P43116 whole entry): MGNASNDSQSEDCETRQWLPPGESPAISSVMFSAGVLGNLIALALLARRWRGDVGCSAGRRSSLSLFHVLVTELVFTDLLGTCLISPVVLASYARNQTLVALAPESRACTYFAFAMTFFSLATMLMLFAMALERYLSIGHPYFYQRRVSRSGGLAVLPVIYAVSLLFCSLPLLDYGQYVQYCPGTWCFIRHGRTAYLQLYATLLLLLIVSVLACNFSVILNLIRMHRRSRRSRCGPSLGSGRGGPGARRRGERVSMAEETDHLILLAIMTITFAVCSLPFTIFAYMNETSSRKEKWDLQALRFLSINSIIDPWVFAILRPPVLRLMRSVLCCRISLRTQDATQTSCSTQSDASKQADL
Procedure: as §1, §2

human NSCLC = conditions: in vitro; cited from earlier work
[4] = test system: murine mammary tumour cells; conditions: mouse, in vivo; cited from earlier work
[5] = test system: human inflammatory breast cancer cells; conditions: Robertson et al. 2008; cited from earlier work
[6] = test system: aberrant crypt foci and intestinal polyps; conditions: mouse disease model; Mutoh et al. 2002; cited from earlier work
[7] = test system: castration-resistant prostate cancer; conditions: mouse xenograft disease model; Terada et al. 2010; cited from earlier work

Compound	Ki [1] [nM]	IC50 [2] [nM]	IC50 [3] [nM]	also measured
O=C(N[C@H]1CC2(C1)C[C@H](C(=O)O)C2)c1cnn2cccc(Cc3ccc(C(F)(F)F)cc3)c12 (single isomer, unassigned) [Compound 14A, cis-6-[[4-[[4-(trifluoromethyl)phenyl]methyl]pyrazolo[1,5-a]pyridine-3-carbonyl]amino]spiro[3.3]heptane-2-carboxylic acid]	100 to 499	100 to 499	> 1000	
O=C(N[C@H]1CC2(C1)C[C@H](C(=O)O)C2)c1cnn2cccc(Cc3ccc(C(F)(F)F)cc3)c12 (single isomer, unassigned) [Compound 14B, trans-2-[[4-[[4-(trifluoromethyl)phenyl]methyl]pyrazolo[1,5-a]pyridine-3-carbonyl]amino]spiro[3.3]heptane-6-carboxylic acid]	< 100	< 100	> 1000	
O=C(O)CC/C=C\CC[C@H]1[C@H](N2CCOCC2)C(=O)C[C@H]1OCc1ccc(-c2ccccc2)cc1 [AH-23848]				tumorigenic effects of PGE2 on human NSCLC growth (human NSCLC): successfully inhibited; metastasis of murine mammary tumour cells [4]: reduced metastasis
O=C(NC1CC2(C1)CC(C(=O)O)C2)c1cnn2cccc(Cc3cccc(C(F)(F)F)c3)c12 (stereo not drawn) [Compound 4, 2-[[4-[[3-(trifluoromethyl)phenyl]methyl]pyrazolo[1,5-a]pyridine-3-carbonyl]amino]spiro[3.3]heptane-6-carboxylic acid]	< 100	< 100	> 1000	
O=C(NC1CC2(C1)CC(C(=O)O)C2)c1n[nH]c2cccc(Cc3ccc(C(F)(F)F)cc3)c12 (stereo not drawn) [Compound 8, 2-[[4-[[4-(trifluoromethyl)phenyl]methyl]-1H-indazole-3-carbonyl]amino]spiro[3.3]heptane-6-carboxylic acid]	< 100	< 100	> 1000	
CCOc1c2c(c(OCC)c3ccccc13)C(=O)N(c1ccc(CC(=O)NS(=O)(=O)c3ccccc3)cc1)C2 [GW-627368X]				proliferation and invasion of human inflammatory breast cancer cells [5]: selectively inhibited both proliferation and invasion
CC(C(=O)Nc1ccccc1Cc1ccccc1C(=O)O)c1cccc2ccccc12 (stereo not drawn) [ONO-AE2-227]				formation of aberrant crypt foci and intestinal polyps [6]: reduced the formation of aberrant crypt foci and intestinal polyps
CC(C(=O)Nc1cc(C#N)ccc1CCCC(=O)O)c1ccc(F)c2ccccc12 (stereo not drawn) [ONO-AE3-208]				castration-resistant prostate cancer progression [7]: suppressed castration-resistant prostate cancer progression; metastasis of murine mammary tumour cells [4]: reduced metastasis

Now from value to compound, other results behind:

Ki [1] [nM]	IC50 [2] [nM]	IC50 [3] [nM]	Compound	also measured
< 100	< 100	> 1000	C[C@H](NC(=O)c1cnn2cccc(Cc3ccc(C(F)(F)F)cc3)c12)c1ccc(C(=O)O)cc1 [Compound 1, 4-[(1S)-1-[[4-[[4-(trifluoromethyl)phenyl]methyl]pyrazolo[1,5-a]pyridine-3-carbonyl]amino]ethyl]benzoic acid]	
< 100	< 100	> 1000	O=C(NC1CC2(C1)CC(C(=O)O)C2)c1cnn2cccc(Cc3ccc(C(F)(F)F)cc3)c12 (stereo not drawn) [Compound 2, 2-[[4-[[4-(trifluoromethyl)phenyl]methyl]pyrazolo[1,5-a]pyridine-3-carbonyl]amino]spiro[3.3]heptane-6-carboxylic acid]	
< 100	< 100	> 1000	C[C@H](NC(=O)c1cnn2cccc(Cc3cccc(C(F)(F)F)c3)c12)c1ccc(C(=O)O)cc1 [Compound 3, 4-[(1S)-1-[[4-[[3-(trifluoromethyl)phenyl]methyl]pyrazolo[1,5-a]pyridine-3-carbonyl]amino]ethyl]benzoic acid]	
< 100	< 100	> 1000	C[C@H](NC(=O)c1n[nH]c2cccc(Cc3ccc(C(F)(F)F)cc3)c12)c1ccc(C(=O)O)cc1 [Compound 7, 4-[(1S)-1-[[4-[[4-(trifluoromethyl)phenyl]methyl]-1H-indazole-3-carbonyl]amino]ethyl]benzoic acid]	
< 100	< 100	> 1000	CCn1nc(C(=O)N[C@@H](C)c2ccc(C(=O)O)cc2)c2c(Cc3ccc(C(F)(F)F)cc3)cccc21 [Compound 9, 4-[(1S)-1-[[1-ethyl-4-[[4-(trifluoromethyl)phenyl]methyl]indazole-3-carbonyl]amino]ethyl]benzoic acid]	
100 to 499	< 100	> 1000	CCn1nc2cccc(Cc3ccc(C(F)(F)F)cc3)c2c1C(=O)N[C@@H](C)c1ccc(C(=O)O)cc1 [Compound 10, 4-[(1S)-1-[[2-ethyl-4-[[4-(trifluoromethyl)phenyl]methyl]indazole-3-carbonyl]amino]ethyl]benzoic acid]	
< 100	< 100	> 1000	C[C@H](NC(=O)c1cnn2cccc(Cc3cc4ccccc4cn3)c12)c1ccc(C(=O)O)cc1 [Compound 12, 4-[(1S)-1-[[4-(3-isoquinolylmethyl)pyrazolo[1,5-a]pyridine-3-carbonyl]amino]ethyl]benzoic acid]	
< 100	< 100	> 1000	O=C(O)CC12CC(NC(=O)c3cnn4cccc(Cc5ccc(C(F)(F)F)cc5)c34)(C1)C2 [Compound 15, 2-[3-[[4-[[4-(trifluoromethyl)phenyl]methyl]pyrazolo[1,5-a]pyridine-3-carbonyl]amino]-1-bicyclo[1.1.1]pentanyl]acetic acid]	
